Reference: patent publication US20200079765A1, “SUBSTITUTED HETEROARYL PYRROLONES AND SALTS THEREOF AND USE THEREOF AS HERBICIDAL ACTIVE SUBSTANCES” (Bayer CropScience Aktiengesellschaft, priority 2016, published 2020)

Tests used:
[1] = tested on: Abutilon theophrasti; test: Herbicidal post-emergence action (Experimental Part 2, C); type: in vivo; conditions: post-emergence (Part 2), application rate 1280 g/ha, rated visually after about 3 weeks
Method: (§1) Seeds of mono- and dicotyledonous weed plants were placed in plastic pots in sandy loam soil (doubly sown with in each case one species of mono- or dicotyledonous weed plants per pot), covered with soil and cultivated in a greenhouse under controlled growth conditions. 2 to 3 weeks after sowing, the test plants were treated at the one-leaf stage. The compounds of the invention, formulated in the form of wettable powders (WP) or as emulsion concentrates (EC), were applied onto the green parts of the plants as aqueous suspension or emulsion with addition of 0.5% additive at a water application rate of 600 liters per hectare (converted). After the test plants had been kept in the greenhouse under optimum growth conditions for about 3 weeks, the activity of the preparations was rated visually in comparison to untreated controls. For example, 100% activity=the plants have died, 0% activity=like control plants. Tables C1 to C8 below show the effects of selected compounds of the general formula (I) according to Tables I.1 to I.116 on various harmful plants and an application rate corresponding to 1280 g/ha or 320 g/ha, which were obtained by the experimental procedure mentioned above.

[2] = tested on: Matricaria inodora; test: as above; type: in vivo; conditions: post-emergence (Part 2), application rate 1280 g/ha, rated visually after about 3 weeks
Method: as §1

[3] = tested on: Stellaria media; test: as above; type: in vivo; conditions: post-emergence (Part 2), application rate 1280 g/ha, rated visually after about 3 weeks
Method: as §1

[4] = tested on: Abutilon theophrasti; test: Herbicidal pre-emergence action (Experimental Part 2, D); type: in vivo; conditions: pre-emergence (Part 2), application rate 1280 g/ha, scored visually after about 3 weeks
From the text: (§2) Seeds of mono- and dicotyledonous weed plants were placed in plastic pots in sandy loam soil (doubly sown with in each case one species of mono- or dicotyledonous weed plants per pot) and covered with soil. The compounds of the invention, formulated in the form of wettable powders (WP) or as emulsion concentrates (EC), were then applied onto the surface of the covering soil as aqueous suspension or emulsion with addition of 0.5% additive at a water application rate of 600 liters per hectare (converted). After the treatment, the pots are placed in a greenhouse and kept under good growth conditions for the trial plants. After about 3 weeks, the effect of the preparations was scored visually in comparison with untreated controls as percentages. For example, 100% activity=the plants have died, 0% activity=like control plants. Tables D1 to D8 below show the effects of selected compounds of the general formula (I) according to Tables I.1 to I.116 on various harmful plants and an application rate corresponding to 1280 g/ha or 320 g/ha, which were obtained by the experimental procedure mentioned above.

[5] = tested on: Lolium rigidum; test: as above; type: in vivo; conditions: pre-emergence (Part 2), application rate 1280 g/ha, scored visually after about 3 weeks
From the text: as §2

[6] = tested on: Matricaria inodora; test: as above; type: in vivo; conditions: pre-emergence (Part 2), scored visually after about 3 weeks
From the text: as §2

[7] = tested on: Poa annua; test: as above; type: in vivo; conditions: pre-emergence (Part 2), scored visually after about 3 weeks
From the text: as §2

[8] = tested on: Setaria viridis; test: as above; type: in vivo; conditions: pre-emergence (Part 2), application rate 1280 g/ha, scored visually after about 3 weeks
From the text: as §2

[9] = tested on: Stellaria media; test: as above; type: in vivo; conditions: pre-emergence (Part 2), scored visually after about 3 weeks
From the text: as §2

[10] = tested on: Amaranthus retroflexus; test: Herbicidal post-emergence action (Experimental Part 2, C); type: in vivo; conditions: post-emergence (Part 2), application rate 320 g/ha, rated visually after about 3 weeks
Method: as §1

[11] = tested on: Amaranthus retroflexus; test: Herbicidal pre-emergence action (Experimental Part 2, D); type: in vivo; conditions: pre-emergence (Part 2), scored visually after about 3 weeks
From the text: as §2

[12] = target: T1, photosystem II (PS II) (Spinacia oleracea, UniProt P69560); test: Measurement of the PS II activity in thylakoid membranes (DCPIP reduction, Experimental Part 3, Table E1); type: biochemical; conditions: spinach thylakoid membranes
T1 construct: the chloroplasts were osmotically ruptured and the thylakoid membranes were then obtained by centrifugation; from tissue; host or cells: thylakoid membranes from fresh spinach leaves
Method: Cooled fresh spinach leaves were comminuted and homogenized in 50 mM phosphate buffer, pH 6.8. 10 mM KCl, 0.34 M sucrose (sucrose buffer) (blender, 1 g of plant material/ml). The homogenate was subsequently filtered through 4 layers of Miracloth and the chloroplasts were isolated by centrifugation, i.e. 10 min of centrifugation at 4400×g (4° C.). The sediment was suspended in 25 ml of sucrose buffer and re-centrifuged for 10 min at 4400×g (4° C.). The sediment was then suspended in 40 ml of 50 mM phosphate buffer, pH 6.8, 10 mM KCl, without sucrose. In this step, the chloroplasts were osmotically ruptured and the thylakoid membranes were then obtained by centrifugation (10 min, 4400×g, 4° C.). The membrane sediment was finally suspended in about 20 ml of 50 mM phosphate buffer, pH 6.8, 10 mM KCl. Following protein determination and activity determination, the membrane suspension was divided into aliquots and frozen in liquid nitrogen. The aliquots were stored at −80° C. Under these conditions, the photosystem II preparation was storage stable for at least three months. The activity determination of photosystem II (PS II) was then carried out using the following test principle: The electron transfer from PS II to an artificial electron acceptor, 2,6-dichlorophenolindophenol (DCPIP), was measured with exposure to light. The concentration of the blue oxidized form of DCPIP was determined spectrophotometrically at wavelength λ=595 nm. […] The activity determination was carried out in microtiter plates (96 cavities) in a reaction volume of 200 μl. Here, 155 μl of dilute membrane suspension were initially charged in 50 mM of phosphate buffer, pH 6.8, 10 mM KCl. Depending on the activity of the PS II preparation, the dilution was adjusted such that the measurement of the decrease in absorption (λ=595 nm) was linear for at least 10 min. In each case 5 μl solution of the test compounds of a concentration of 100 μM in DMSO were added to the enzyme suspension; controls contained 5 μl DMSO; the final concentration of DMSO in the reaction batch was thus 2.5% (v/v); this concentration had no adverse effect on the enzymatic activity. On each microtiter plate, a known PS II inhibitor, for example metribuzin, was used as standard, which allowed the quality of the PS II test to be assessed. The reaction was started by addition of 40 μl DCPIP solution (600 μM in distilled water); the final concentration of DCPIP was 120 μM. Measurement of absorption was carried out over a period of 10 min at 22° C. and with exposure to light. Using metribuzin as comparative substance, the results for the efficacy of the compounds of the general formula (I) at 100 μM are stated in the table below using the following classification: ++++ (inhibition≥90%), +++ (90%>inhibition≥70%), ++ (70%>inhibition≥50%), + (50%>inhibition≥30%).
Effects of selected compounds of the general formula (I) according to the following table E1: […]

[13] = tested on: Amaranthus retroflexus; test: Pre-emergence herbicidal action (Experimental Part 1, B); type: in vivo; conditions: application rate 1280 g/ha, scored visually after about 3 weeks
From the text: Seeds of monocotyledonous and dicotyledonous weed plants and crop plants were placed in plastic or organic planting pots and covered with soil. The compounds of the invention, formulated in the form of wettable powders (WP) or as emulsion concentrates (EC), were then applied onto the surface of the covering soil as aqueous suspension or emulsion with addition of 0.5% additive at a water application rate of 600 l/ha (converted). After the treatment, the pots were placed in a greenhouse and kept under good growth conditions for the test plants. After about 3 weeks, the effect of the preparations was scored visually in comparison with untreated controls as percentages. For example, 100% activity=the plants have died, 0% activity=like control plants. Tables B1 to B14 below show the effects of selected compounds of the general formula (I) according to Tables I.1 to I.116 on various harmful plants and an application rate corresponding to 1280 g/ha or 320 g/ha, which were obtained by the experimental procedure mentioned above.

[14] = tested on: Poa annua; test: Herbicidal post-emergence action (Experimental Part 2, C); type: in vivo; conditions: post-emergence (Part 2), application rate 1280 g/ha, rated visually after about 3 weeks
Method: as §1

[15] = tested on: Setaria viridis; test: as above; type: in vivo; conditions: post-emergence (Part 2), application rate 1280 g/ha, rated visually after about 3 weeks
Method: as §1

| Effect (inhibition of PS II activity) [12] | SMILES | Abutilon theophrasti, herbicidal activity [1] [%] | Matricaria inodora, herbicidal activity [2] [%] | Abutilon theophrasti, herbicidal activity [4] [%] | Setaria viridis, herbicidal activity [8] [%] | Amaranthus retroflexus, herbicidal activity [10] [%] | Amaranthus retroflexus, herbicidal activity ([11]; application rate 1280 g/ha) [%] | Stellaria media, herbicidal activity ([9]; application rate 1280 g/ha) [%] | Matricaria inodora, herbicidal activity ([6]; application rate 1280 g/ha) [%] | further results |
| --- | --- | --- | --- | --- | --- | --- | --- | --- | --- | --- |
|  | CCC(=O)OC1C(C)=CC(=O)N1c1cc(C(C)(C)C)no1 (stereo not shown) [I.5-290] | 100 | 100 | 100 | 90 |  |  |  |  | Stellaria media, herbicidal activity [3]: 100%; Lolium rigidum, herbicidal activity [5]: 90%; Matricaria inodora, herbicidal activity ([6]; application rate 320 g/ha): 100%; Poa Annua, herbicidal activity ([7]; application rate 320 g/ha): 90%; Stellaria media, herbicidal activity ([9]; application rate 320 g/ha): 100% |
| ++++ (inhibition≥90%) | CC1=CC(=O)N(c2cc(C)ns2)C1O (stereo not shown) [I.1-72] |  | 100 |  |  | 100 | 90 | 90 |  |  |
|  | CC(=O)OC1C(C)=CC(=O)N1c1cc(C(C)(C)C)no1 (stereo not shown) [I.3-290] | 100 | 90 | 100 | 90 |  | 90 | 100 | 100 | Amaranthus retroflexus, herbicidal activity [13]: 90%; Poa Annua, herbicidal activity [14]: 100%; Poa Annua, herbicidal activity ([7]; application rate 1280 g/ha): 90% |
|  | CC1=CC(=O)N(c2cscn2)C1O (stereo not shown) [I.1-91] | 100 | 100 | 100 |  | 100 |  |  | 90 | Setaria viridis, herbicidal activity [15]: 100%; Stellaria media, herbicidal activity [3]: 100%; Amaranthus retroflexus, herbicidal activity ([11]; application rate 320 g/ha): 100% |
| ++++ (inhibition≥90%) | CC1=CC(=O)N(c2cc(CC(C)C)no2)C1O (stereo not shown) [I.1-697] |  |  |  |  |  |  |  |  |  |
|  | CC1=CC(=O)N(c2cc(C(C)C)no2)C1O (stereo not shown) [I.1-289] | 100 | 100 | 100 | 90 | 100 | 90 | 100 | 100 | Poa Annua, herbicidal activity ([7]; application rate 1280 g/ha): 100% |

| SMILES | Effect (inhibition of PS II activity) [12] | Abutilon theophrasti, herbicidal activity [1] [%] | Matricaria inodora, herbicidal activity [2] [%] | Abutilon theophrasti, herbicidal activity [4] [%] | Setaria viridis, herbicidal activity [8] [%] | Amaranthus retroflexus, herbicidal activity [10] [%] | Amaranthus retroflexus, herbicidal activity ([11]; application rate 1280 g/ha) [%] | Stellaria media, herbicidal activity ([9]; application rate 1280 g/ha) [%] | Matricaria inodora, herbicidal activity ([6]; application rate 1280 g/ha) [%] | further results |
| --- | --- | --- | --- | --- | --- | --- | --- | --- | --- | --- |
| CSc1nnc(C(C)(C)C)c(=O)n1N [metribuzin, reference compound] | ++++ (inhibition≥90%) |  |  |  |  |  |  |  |  |  |
